Experimental data published in ChEMBL document CHEMBL5625222, “Design, synthesis, and biological evaluation of 1,6-naphthyridine-2-one derivatives as novel FGFR4 inhibitors for the treatment of colorectal cancer” (Eur J Med Chem, 2023).
Active and inactive are the calls of the source. The rule behind the calls is not given here.

What was measured:
[1] = Antiproliferative activity against human Intestinal epithelial cell assessed as inhibition of cell growth incubated for 48 hrs by MTT assay; format: toxicity, cell-based; conditions: human intestinal epithelial cells
[2] = biological target: Fibroblast growth factor receptor 3 (Homo sapiens, UniProt P22607); assay: Inhibition of FGFR3 (unknown origin) kinase activity
Fibroblast growth factor receptor 3, sequence (P22607 whole entry): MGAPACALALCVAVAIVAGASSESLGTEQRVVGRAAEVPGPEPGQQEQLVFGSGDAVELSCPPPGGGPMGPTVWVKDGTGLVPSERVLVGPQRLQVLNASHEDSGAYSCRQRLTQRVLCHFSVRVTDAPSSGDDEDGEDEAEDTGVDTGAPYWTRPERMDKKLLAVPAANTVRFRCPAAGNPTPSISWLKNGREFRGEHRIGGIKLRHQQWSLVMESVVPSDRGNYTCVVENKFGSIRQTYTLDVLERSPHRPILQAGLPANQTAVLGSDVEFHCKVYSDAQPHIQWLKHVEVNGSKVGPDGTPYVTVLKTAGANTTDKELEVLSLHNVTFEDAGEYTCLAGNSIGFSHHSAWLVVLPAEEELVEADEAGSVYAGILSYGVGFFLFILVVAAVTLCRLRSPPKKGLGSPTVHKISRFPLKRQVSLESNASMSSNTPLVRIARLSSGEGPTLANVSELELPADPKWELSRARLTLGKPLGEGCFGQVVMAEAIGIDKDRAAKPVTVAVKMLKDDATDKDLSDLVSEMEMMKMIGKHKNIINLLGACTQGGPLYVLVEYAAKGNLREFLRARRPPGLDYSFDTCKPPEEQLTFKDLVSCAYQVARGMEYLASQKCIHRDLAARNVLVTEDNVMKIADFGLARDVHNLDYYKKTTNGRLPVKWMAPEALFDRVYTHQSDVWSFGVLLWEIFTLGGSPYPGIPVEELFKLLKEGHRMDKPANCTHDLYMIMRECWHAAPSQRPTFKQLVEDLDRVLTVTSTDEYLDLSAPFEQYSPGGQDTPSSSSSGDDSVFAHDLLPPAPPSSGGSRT

RKO [3] = assay: Antiproliferative activity against human RKO cells assessed as inhibition of colony formation incubated for 2 weeks by crystal violet staining method; format: functional, cell-based
RKO [4] = assay: Antiproliferative activity against human RKO cells assessed as inhibition of cell growth incubated for 48 hrs by EdU staining method; format: functional, cell-based
HCT-116 [5] = assay: Induction of cell cycle arrest in human HCT-116 cells assessed as accumulation of cells at G2/M phase incubated for 48 hrs by propidium iodide staining based flow cytometry; format: functional
HCT-116 [6] = assay: Induction of cell cycle arrest in human HCT-116 cells assessed as downregulation of cyclin B1 expression at 1.5 to 6 uM by immunoblotting analysis; format: functional, cell-based; conditions: dose 1.5-6 µM
SW480 [7] = assay: Induction of cell cycle arrest in human SW480 cells assessed as downregulation of cyclin B1 expression at 1.5 to 6 uM by immunoblotting analysis; format: functional, cell-based; conditions: dose 1.5-6 µM
RKO [8] = assay: Induction of cell cycle arrest in human RKO cells assessed as downregulation of cyclin B1 expression at 1.5 to 6 uM by immunoblotting analysis; format: functional, cell-based; conditions: dose 1.5-6 µM
RKO [9] = assay: Induction of cell cycle arrest in human RKO cells assessed as downregulation of CDC2 expression at 1.5 to 6 uM by immunoblotting analysis; format: functional, cell-based; conditions: dose 1.5-6 µM
HCT-116 [10] = assay: Induction of apoptosis in human HCT-116 cells at 3 to 12 uM incubated for 48 hrs by Annexin V-FITC/PI staining based flow cytometric analysis relative to control; format: functional; conditions: dose 3-12 µM
RKO [11] = assay: Induction of apoptosis in human RKO cells assessed as downregulation of ratio of Bcl-2/Bax expression at 3 to 12 uM incubated for 48 hrs by Western blotting analysis; format: functional, cell-based; conditions: dose 3-12 µM
HCT-116 [12] = assay: Anti-migration activity in human HCT-116 cells assessed as loss of actin cytoskeletal fibers at 3 to 12 uM by immunofluorescence assay; format: functional, cell-based; conditions: dose 3-12 µM
HCT-116 [13] = assay: Anti-migration activity in human HCT-116 cells assessed as change in FAK expression at 3 to 12 uM by Western blotting analysis; format: functional, cell-based; conditions: dose 3-12 µM
SW480 [14] = assay: Anti-migration activity in human SW480 cells assessed as loss of actin cytoskeletal fibers at 3 to 12 uM by immunofluorescence assay; format: functional, cell-based; conditions: dose 3-12 µM
SW480 [15] = assay: Anti-migration activity in human SW480 cells assessed as change in FAK distribution at 3 to 12 uM by immunofluorescence assay; format: functional, cell-based; conditions: dose 3-12 µM
SW480 [16] = assay: Anti-migration activity in human SW480 cells assessed as upregulation of E-cad expression by Western blotting analysis; format: functional, cell-based
RKO [17] = assay: Anti-migration activity in human RKO cells assessed as change in FAK expression at 3 to 12 uM by Western blotting analysis; format: functional, cell-based; conditions: dose 3-12 µM
[18] = Toxicity in ICR mouse assessed as change in body weight at 20 mg/kg,po administrated for 1 week; format: organism-based; conditions: in vivo, 168 h, time 1 weeks
[19] = Toxicity in ICR mouse assessed as change in body weight at 60 mg/kg,po administrated for 1 week; format: organism-based; conditions: in vivo, 168 h, time 1 weeks
[20] = Toxicity in ICR mouse assessed as change in heart weight at 60 mg/kg,po administrated for 1 week; format: organism-based; conditions: in vivo, 168 h, time 1 weeks
[21] = Toxicity in ICR mouse assessed as change in liver weight at 20 mg/kg,po administrated for 1 week; format: organism-based; conditions: in vivo, 168 h, time 1 weeks
[22] = Toxicity in ICR mouse assessed as change in liver weight at 60 mg/kg,po administrated for 1 week; format: organism-based; conditions: in vivo, 168 h, time 1 weeks
[23] = Toxicity in ICR mouse assessed as change in spleen weight at 60 mg/kg,po administrated for 1 week; format: organism-based; conditions: in vivo, 168 h, time 1 weeks
[24] = Toxicity in ICR mouse assessed as change in lung weight at 20 mg/kg,po administrated for 1 week; format: organism-based; conditions: in vivo, 168 h, time 1 weeks
[25] = Hepatotoxicity in ICR mouse assessed as change in serum creatinine level at 20 mg/kg,po administrated for 1 week; format: toxicity, organism-based; conditions: in vivo, 168 h, time 1 weeks
[26] = Hepatotoxicity in ICR mouse assessed as change in serum AST level at 60 mg/kg,po administrated for 1 week; format: toxicity, organism-based; conditions: in vivo, 168 h, time 1 weeks
[27] = Hepatotoxicity in ICR mouse assessed as change in serum ALT level at 60 mg/kg,po administrated for 1 week; format: toxicity, organism-based; conditions: in vivo, 168 h, time 1 weeks
[28] = Toxicity in ICR mouse assessed as histopathological change in kidney at 60 mg/kg,po administrated for 1 week by hematoxylin and eosin staining analysis; format: organism-based; conditions: in vivo, 168 h, time 1 weeks
[29] = Toxicity in BALB/c mouse xenografted with human HCT-116 cells assessed as change in body weight at 10 mg/kg,ip administrated for 2 weeks; format: organism-based; conditions: in vivo, 336 h
[30] = Toxicity in BALB/c mouse xenografted with human HCT-116 cells assessed as change in heart weight at 10 mg/kg,ip administrated for 2 weeks; format: organism-based; conditions: in vivo, 336 h
[31] = Toxicity in BALB/c mouse xenografted with human HCT-116 cells assessed as change in lung weight at 10 mg/kg,ip administrated for 2 weeks; format: organism-based; conditions: in vivo, 336 h
[32] = Toxicity in BALB/c mouse xenografted with human HCT-116 cells assessed as change in lung weight at 20 mg/kg,ip administrated for 2 weeks; format: organism-based; conditions: in vivo, 336 h
[33] = Toxicity in BALB/c mouse xenografted with human HCT-116 cells assessed as change in spleen weight at 10 mg/kg,ip administrated for 2 weeks; format: organism-based; conditions: in vivo, 336 h
HCT-116 [34] = assay: Antitumor activity against human HCT-116 cells xenografted in BALB/c mouse assessed as chromatin condensation at 20 mg/kg,ip administrated for 2 weeks by hematoxylin and eosin staining based analysis; format: functional, organism-based
[35] = Toxicity in BALB/c mouse xenografted with human HCT-116 cells assessed as histopathological change in kidney at 20 mg/kg,ip administrated for 2 weeks by hematoxylin and eosin staining based analysis; format: organism-based; conditions: in vivo, 336 h
[36] = Toxicity in BALB/c mouse xenografted with human HCT-116 cells assessed as change in serum creatinine level at 10 mg/kg,ip administrated for 2 weeks; format: organism-based; conditions: in vivo, 336 h
[37] = Toxicity in BALB/c mouse xenografted with human HCT-116 cells assessed as change in serum ALT level at 10 mg/kg,ip administrated for 2 weeks; format: organism-based; conditions: in vivo, 336 h
HCT-116 [38] = assay: Antitumor activity against human HCT-116 cells xenografted in BALB/c mouse assessed as upregulation of E-cad expression in tumor at 10 mg/kg,ip administrated for 2 weeks by Western blotting analysis; format: functional, organism-based
HCT-116 [39] = assay: Antitumor activity against human HCT-116 cells xenografted in BALB/c mouse assessed as downregulation of FAK phosphorylation in tumor at 10 mg/kg,ip administrated for 2 weeks by Western blotting analysis; format: functional, organism-based
HCT-116 [40] = assay: Antitumor activity against human HCT-116 cells xenografted in BALB/c mouse assessed as downregulation of FGFR4 signalling pathway in tumor at 20 mg/kg,ip administrated for 2 weeks by Western blotting analysis; format: functional, organism-based
HCT-116 [41] = assay: cells; conditions: Homo sapiens, HCT-116, 48 h
Description: Antiproliferative activity against human HCT-116 cells assessed as inhibition of cell growth incubated for 48 hrs by MTT assay

SW480 [42] = assay: cells; conditions: Homo sapiens, SW480, 48 h
Description: Antiproliferative activity against human SW480 cells assessed as inhibition of cell growth incubated for 48 hrs by MTT assay

SMILES: C=CC(=O)NCCCn1c(=O)c(-c2c(Cl)c(OC)cc(OC)c2Cl)cc2cnc(Nc3c(C)cccc3NC(=O)C=C)cc21
- IC50 at 48 h [1]: 23.8 µM
- IC50 [2]: 0.225 µM
- Activity (RKO [3]): Dose-Dependent Effect
- Activity (RKO [4]): Dose-Dependent Effect
- Activity (HCT-116 [5]): Dose-Dependent Effect
- Activity (HCT-116 [6]): Active
- Activity (SW480 [7]): Active
- Activity (RKO [8]): Active
- Activity (RKO [9]): Active
- Activity (HCT-116 [10]): 0.64%
- Activity (RKO [11]): Active
- Activity (HCT-116 [12]): Active
- Activity (HCT-116 [13]): inactive
- Activity (SW480 [14]): Active
- Activity (SW480 [15]): Active
- Activity (SW480 [16]): Dose-Dependent Effect
- Activity (RKO [17]): inactive
- Activity [18]: Non-Toxic
- Activity [19]: Non-Toxic
- Activity [20]: Non-Toxic
- Activity [21]: Non-Toxic
- Activity [22]: Non-Toxic
- Activity [23]: Non-Toxic
- Activity [24]: Non-Toxic
- Activity [25]: Non-Toxic
- Activity [26]: Non-Toxic
- Activity [27]: Non-Toxic
- Activity [28]: Non-Toxic
- Activity [29]: Non-Toxic
- Activity [30]: Non-Toxic
- Activity [31]: Non-Toxic
- Activity [32]: Non-Toxic
- Activity [33]: Non-Toxic
- Activity (HCT-116 [34]): Active
- Activity [35]: Non-Toxic
- Activity [36]: Non-Toxic
- Activity [37]: Non-Toxic
- Activity (HCT-116 [38]): Active
- Activity (HCT-116 [39]): Active
- Activity (HCT-116 [40]): Active
- IC50 (HCT-116 [41]): 4.24 µM
- IC50 (SW480 [42]): 6.99 µM
